ChEMBL document CHEMBL3217713, “Synthesis and biological evaluation of primaquinechloroquine twin drug: a novel heme-interacting molecule prevents free heme and hydroxyl radical-mediated protein degradation” (Medchemcomm, 2013)
Active and inactive are the calls of the source. No cut-off for these calls is given here.

Columns and labels:
[1] = Antioxidant activity assessed as reduction of Fe(3)-TPTZ to Fe(2)-TPTZ complex after 5 mins by FRAP assay; format: functional
[2] = Cytotoxicity against rat gastric mucosal cells assessed as cell viability at 10 to 100 uM after 16 hrs by MTT assay; format: cell-based, Gastric mucosa
[3] = system: Radical scavenging activity; experiment: Antioxidant activity assessed as DPPH free radical scavenging activity after 30 mins by spectrophotometry; format: functional
[4] = Antioxidant activity assessed as reduction of heme/H2O2-mediated BSA degradation at 50 uM after 1 hr by SDS-PAGE; format: functional
[5] = Antioxidant activity assessed as reduction of hydroxyl radical-mediated BSA damage at 50 uM after 30 mins by SDS-PAGE; format: functional
[6] = Iron chelating activity of the compound assessed as reduction of Fe(2)-TPTZ complex formation by UV-visible spectrophotometry; format: physicochemical
Heme [7] = experiment: Binding affinity to heme (unknown origin) by differential spectroscopy
Heme [8] = experiment: Binding affinity to heme (unknown origin) at 2 to 20 uM by optical spectroscopy
Heme [9] = experiment: Binding affinity to heme (unknown origin)

`O=C(O)c1cc(O)c(O)c(O)c1` gave an Activity [1] of 33.9 µM.

In the case of `COc1cc(NC(C)CCCNc2ccnc3cc(Cl)ccc23)c2ncccc2c1` (stereo not drawn), the Activity [2] is reported as “Non-toxic”, the Activity [3] is reported as “Dose-dependent effect” and the IC50 [3] is reported as 23 µM. For the same compound, the Activity [4] was “Active”, the Activity [5] was “Active” and the Activity [1] was 30 µM. The Kd [6] was 5.19 µM, the Kapp (Heme [7]) was 2.3 ×10⁴ /M and the Kd (Heme [7]) was 4.34 µM. For the same compound, the Activity (Heme [8]) was “Active”.

With `COc1cc(NC(C)CCCN)c2ncccc2c1` (stereo not drawn) [PRIMAQUINE] the Activity [2] was “Toxic”.

`CCN(CC)CCCC(C)Nc1ccnc2cc(Cl)ccc12` (stereo not drawn) showed a Ka (Heme [9]) of 5.5 ×10⁴ /M.
